ChEMBL document CHEMBL1136837, “Unified QSAR approach to antimicrobials. 4. Multi-target QSAR modeling and comparative multi-distance study of the giant components of antiviral drug-drug complex networks” (Bioorg Med Chem, 2009)

Tests used:
Human alphaherpesvirus 1 = experiment: Antiviral activity against Herpes simplex virus 1; format: functional, organism-based; details: Human alphaherpesvirus 1
Human alphaherpesvirus 2 = experiment: Antiviral activity against Herpes simplex virus 2; format: functional, organism-based; details: Human alphaherpesvirus 2
[1] = test system: Human immunodeficiency virus 1; experiment: Antiviral activity against HIV1; format: functional, organism-based
[2] = test system: Human immunodeficiency virus 2; experiment: Antiviral activity against HIV2; format: functional, organism-based
[3] = test system: Moloney murine sarcoma virus; experiment: Antiviral activity against Moloney sarcoma virus; format: functional, organism-based
Human alphaherpesvirus 3 = experiment: Antiviral activity against Varicella zoster virus; format: functional, organism-based
Human rhinovirus sp. = experiment: Antiviral activity against Human rhinovirus; format: functional, organism-based
Human adenovirus 2 = experiment: Antiviral activity against Human adenovirus 2; format: functional, organism-based; details: Human mastadenovirus C
Cowpox virus = experiment: Antiviral activity against Cowpox virus; format: functional, organism-based
Vaccinia virus = experiment: Antiviral activity against Vaccinia virus; format: functional, organism-based, Orthopoxvirus vaccinia; details: Orthopoxvirus vaccinia
Influenza A virus = experiment: Antiviral activity against influenza H1N1 virus; format: functional, organism-based
Simplexvirus = experiment: Antiviral activity against Herpes simplex virus; format: functional, organism-based
Human gammaherpesvirus 4 = experiment: Antiviral activity against Epstein-Barr virus; format: functional, organism-based
Hepatitis B virus = experiment: Antiviral activity against Hepatitis B virus; format: functional, organism-based
Human betaherpesvirus 5 = experiment: Antiviral activity against Human cytomegalovirus; format: functional, organism-based; details: Human betaherpesvirus 5
Picornaviridae = experiment: Antiviral activity against Human picornavirus; format: functional, organism-based

Nc1nc(OCCOCP(=O)(O)O)cc(=O)n1CCOCP(=O)(O)O
IC50 (Human alphaherpesvirus 1): 0.000993 µM | IC50 (Human alphaherpesvirus 2): 0.000993 µM | IC50 [1]: 0.000248 µM | IC50 [2]: 0.000248 µM | IC50 [3]: 0.000266 µM | IC50 (Human alphaherpesvirus 3): 0.000124 µM

CCOC(=O)/C=C/[C@H](C[C@H]1CCNC1=O)NC(=O)[C@H](Cc1ccccc1)n1cccc(NC(=O)OCc2ccccc2)c1=O
IC50 (Human rhinovirus sp.): 0.469 µM

Nc1ncnc2c1ncn2C[C@@H](CO)OCP(=O)(O)O
IC50 (Human adenovirus 2): 0.63 µM | IC50 (Cowpox virus): 5 µM | IC50 (Vaccinia virus): 3.5 µM

CCC(CC)C(NC(C)=O)C1CC(C(=O)O)CC1NC(=N)N (centres undefined)
IC50 (Influenza A virus): 0.64 µM

N#Cc1cn([C@@H]2O[C@H](CO)[C@@H](O)[C@H]2O)c2ncnc(N)c12 [TOYOCAMYCIN]
IC50 (Simplexvirus): 38 µM

Cc1cn(/C=C2\CC2(F)CO)c(=O)[nH]c1=O (centres undefined)
IC50 (Human gammaherpesvirus 4): 20 µM | IC50 (Hepatitis B virus): 20 µM | IC50 [1]: 100 µM | IC50 (Human alphaherpesvirus 3): 442 µM

Cc1ccc(Cn2c(N)c(C#N)c3c(N)ncnc32)cc1
IC50 (Simplexvirus): 60 µM

O=C(NCc1ccc(Cl)cc1)c1cnc2ccc(C#CCO)cc2c1O
IC50 (Simplexvirus): 20 µM | IC50 (Human alphaherpesvirus 3): 0.68 µM

O=C(NCc1ccc(Cl)cc1)c1cnc2c(F)cccc2c1O
IC50 (Simplexvirus): 13 µM | IC50 (Human betaherpesvirus 5): 11 µM | IC50 (Human alphaherpesvirus 3): 1.2 µM

Nc1cc(=O)n(CCOCP(=O)(O)O)cn1
IC50 (Human alphaherpesvirus 1): 0.00161 µM | IC50 (Human alphaherpesvirus 2): 0.00161 µM | IC50 [1]: 0.000402 µM | IC50 [2]: 0.000402 µM | IC50 [3]: 0.000554 µM | IC50 (Human alphaherpesvirus 3): 0.000201 µM

CCCCCCCCCCCCCCCCOCCCOP1(=O)CO[C@@H](CN2CCC(N)=NC2=O)CO1 (some centres undefined)
IC50 (Simplexvirus): 0.04 µM | IC50 (Human betaherpesvirus 5): 0.04 µM | IC50 (Vaccinia virus): 5.6 µM

CNC(=O)/C=C(\c1ccc(C)cc1)c1ccc2nc(NCC(=O)NC)c(-c3ccc(F)cc3)n2n1
IC50 (Picornaviridae): 0.23 µM

Nc1nc(NC2CC2)cc(OCCOCP(=O)(O)O)n1
IC50 (Human alphaherpesvirus 1): 0.000789 µM | IC50 (Human alphaherpesvirus 2): 0.000263 µM | IC50 [1]: 0.000329 µM | IC50 [3]: 0.000132 µM | IC50 (Human alphaherpesvirus 3): 0.000164 µM

CCOC(=O)/C=C/[C@H](CCC(N)=O)NC(=O)Cn1cccc(NC(=O)OCc2ccccc2)c1=O
IC50 (Human rhinovirus sp.): 10 µM

CCCCCCCCCCCCCCCCCCOCCOP(=O)(O)CO[C@H](CO)Cn1ccc(N)nc1=O
IC50 (Simplexvirus): 0.001 µM | IC50 (Vaccinia virus): 0.24 µM

Nc1ncnc2c1c(Br)cn2COCCO
IC50 (Simplexvirus): 16 µM

Nc1ccn([C@@H]2CS[C@H](CO)O2)c(=O)n1 [LAMIVUDINE]
IC50 (Human adenovirus 2): 100 µM | IC50 (Cowpox virus): 436 µM | IC50 (Vaccinia virus): 436 µM

CCOC(=O)/C=C/[C@H](CCC(N)=O)NC(=O)[C@H](CC1CCCCC1)n1cccc(NC(=O)OCc2ccccc2)c1=O
IC50 (Human rhinovirus sp.): 0.178 µM

CCOC(=O)/C=C/[C@H](CCC(N)=O)NC(=O)[C@H](Cc1ccccc1)n1cccc(NC(=O)C(C)(C)C)c1=O
IC50 (Human rhinovirus sp.): 0.518 µM

CCOC(=O)/C=C/[C@H](CCC(N)=O)NC(=O)[C@H](Cc1ccc(F)cc1)n1cccc(NC(=O)OCc2ccccc2)c1=O
IC50 (Human rhinovirus sp.): 0.014 µM

Nc1nc(O)cc(NC2CC2)n1
IC50 (Human alphaherpesvirus 1): 0.00241 µM | IC50 [3]: 0.000801 µM

CNC(=O)/C=C(\c1ccc(OC)cc1)c1ccc2nc(NCC(=O)NC)c(-c3ccc(F)cc3)n2n1
IC50 (Picornaviridae): 0.6 µM

CCOC(=O)/C=C/[C@H](C[C@@H]1CCNC1=O)NC(=O)/C=C/c1cccc(Br)c1
IC50 (Human rhinovirus sp.): 1.4 µM

Nc1nc2ccc(/C(=N/O)c3ccccc3)nn2c1-c1ccccc1
IC50 (Picornaviridae): 0.04 µM

CCOC(=O)/C=C/[C@H](CCC(N)=O)NC(=O)[C@H](Cc1ccc(F)c(F)c1)n1cccc(NC(=O)OCc2ccccc2)c1=O
IC50 (Human rhinovirus sp.): 0.003 µM

Nc1cc(OCCOCP(=O)(O)O)ncn1
IC50 (Human alphaherpesvirus 1): 6.43 µM | IC50 [3]: 5.22 µM

CCOC(=O)/C=C/[C@H](C[C@@H]1CCNC1=O)NC(=O)[C@H](Cc1ccccc1)n1cccc(NC(=O)OCc2ccccc2)c1=O
IC50 (Human rhinovirus sp.): 0.003 µM

Nc1nc2c(ncn2COC(CO)CO)c(=O)[nH]1 [GANCICLOVIR]
IC50 (Human adenovirus 2): 35 µM | IC50 (Vaccinia virus): 392 µM

CN(C)c1cc(OCCOCP(=O)(O)O)nc(N)n1
IC50 (Human alphaherpesvirus 1): 0.00137 µM | IC50 (Human alphaherpesvirus 2): 0.00137 µM | IC50 [1]: 0.000342 µM | IC50 [2]: 0.000342 µM | IC50 [3]: 0.000455 µM | IC50 (Human alphaherpesvirus 3): 0.000171 µM
